Measured values: patent US11701389B2, “Methods of preserving mesenchymal stem cells” (Emory University, priority 2016, dated 2023)
Where a SMILES comes first, the peptide text is derived from it. The star is where a group is joined. Cbz = O=C(OCc1ccccc1)*; CH2F = FC*

Tested on: T cell proliferation in SEB activated PBMCs
Assay: MSC and PBMC coculture, Ki67 T cell proliferation assay
Type: cell-based, human
Settings: for inhibition of T cell proliferation by frozen-thawed MSCs pretreated with inhibitor prior to cryopreservation: Z-VAD-FMK 50 uM or 3-Methyl Adenine 1 mM pretreatment, FIG. 5A, 5B

Compound	effect of IDO blocking on suppression of T-cell proliferation by IFNgamma Cryo MSCs (1 mM added to coculture, FIG. 5F)	inhibition of T cell proliferation by frozen-thawed MSCs pretreated with inhibitor prior to cryopreservation
Cn1cc(C[C@H](N)C(=O)O)c2ccccc21 (racemic) [1-Methyl Tryptophan]	negates the suppressive effect	
Cn1cnc(N)c2ncnc1-2 [3-Methyl Adenine]		defective in inhibiting T cell proliferation
COC(=O)C[C@H](NC(=O)[C@H](C)NC(=O)[C@@H](NC(=O)OCc1ccccc1)C(C)C)C(=O)CF [Z-VAD-FMK] (Cbz-Val-Ala-Asp(OMe)-CH2F)		defective in inhibiting T cell proliferation
